Values quoted from earlier work as cited in patent US5866539A, “Method for the control of antibiotic-resistant gram positive bacteria and treatment of infection” (AMBI Inc., priority 1996, dated 1999).
Where no end group is shown, it is not given here.

Test system: staphylococci and enterococci
Settings: compared to currently used therapeutic agents

Substance | activity towards staphylococci and enterococci
Actagardine | only moderate activity
mersacidin (CTFTLPGGGGVCTLTSECIC; also: lantibiotic thioether rings, places not given here; UniProt P43683 49-68, looked up) [more recent lanthionine-containing antimicrobial peptide evaluated in the literature] | only moderate activity
